Source: patent US4316955A, “Enzymatic deesterification of cephalosporin methyl esters” (Eli Lilly and Company, priority 1980, dated 1982)

Tests used:
[1] = system: A49492 (Streptomyces capillispira); test: Antibiotic disk sensitivity test of A49492; further: key: +: a plus indicates that a zone of inhibition was formed; -: a minus sign indicates that there was no inhibition zone; format: cell-based; conditions: ISP No. 2 agar seeded with 2% vegetative inoculum; amount per disk: Erythromycin 15 μg, Keflin 30 μg, Lincomycin 2 μg, Nystatin 100 U, Polymixin B 300 U, Streptomycin 10 μg, Tetracycline 30 μg, Vancomycin 5 μg
Experimental: Sodium chloride and sucrose tolerance were measured using ISP No. 2 agar. Antibiotic sensitivity was determined with sensitivity discs placed onto the surface of ISP No. 2 agar plates seeded with 2% vegetative inoculum.
In the table below, the column headed "Amount" indicates the amount of the antibiotic deposited on each disk.

[2] = system: enzyme produced by Streptomyces capillispira; test: Rate of enzymatic deesterification of cephalosporin methyl esters (titrimetric / spot-plate); format: biochemical
Experimental: Another detection method, called the spot plate method, was carried out by pipetting a carefully measured amount, usually 10 μl., of the mixture to be analyzed onto a filter paper sheet which had small zones outlined by lacquer so that liquids placed on the zones were isolated from each other. If the substrate compound was a nucleus ester, so that acylation was necessary, each zone was also spotted with 10 μl. of 2% sodium bicarbonate solution, and 20 μl. of 2.5% phenoxyacetyl chloride in petroleum ether. The spots were air-dried, and the paper sheets were overlaid on the agar surface of an assay plate which had been seeded with a spore suspension of B. subtilis. The sheets were left on the agar plates for about 45 minutes, and were then removed and the agar plates were incubated at 25° overnight. The sizes of the zones of inhibition were then measured, and the amount of cephalosporin acid in the sample was determined by comparison with the sizes of the zones produced by known amounts of the cephalosporin acid which was the product of the deesterification.
The above biological analytical methods are useful both for unpurified fermentation mixtures, and for purified enzyme preparations. Purified preparations are readily analyzed by titrimetric methods which determine the amount of acid produced by measuring the amounts of base needed to maintain constant pH during the reaction. Thus, the deesterification reaction is easily monitored with an automatic titrator by adding the enzyme preparation to an appropriate substrate solution and following the course of deesterification by the amount of base added to the sample by the automatic titrator.
The activity of the enzyme preparations in the following examples is described as a rate, usually measured in terms of (moles of substrate deesterified)/(mg. of protein or cells)(minute). In some instances, the activity of the enzyme was described in other ways, and such instances are explained in the pertinent examples.
The substrate against which enzyme activity was measured was methyl 7-amino-3-methyl-3-cephem-4-carboxylate unless otherwise stated.
In this experiment, the enzyme preparation of Example 16 was used to deesterify methyl cephalexin, and the rate of hydrolysis was measured by pH-stat titration. Reaction mixtures were prepared as shown in Example 16, except that 1 ml. of the enzyme preparation and 2 ml. of substrate solution were used, so that the final reaction mixture contained 2.5 mg./ml. of protein.
A purified enzyme preparation, prepared substantially as described in Example 15 above, and containing 0.66 mg./ml. of protein was used to deesterify methyl 7-amino(phenyl)acetamido-3-chloro-3-cephem-4-carboxylate(methyl cefaclor). […]

[3] = system: enzyme produced by Streptomyces capillispira; test: Deesterification shown by paper chromatography and bioautography; format: biochemical; conditions: 3-day culture, 30°, 16-20 hours; chromatogram acylated with phenoxyacetyl chloride; plate seeded with B. subtilis
Experimental: The usual method made use of filter paper chromatography, with 4/1 acetonitrile/water as the solvent.
If the substrate ester was a cephalosporin nucleus ester, having only an amino group at the 7-position, then the amount of acid could not be measured directly, because the nucleus acid is not active against the test organism.
The inoculated tube was shaken at 30° for 3 days, and then 4 ml. of the culture was transferred to a 50-ml. flask. To the flask was added 1 ml. of a filter-sterilized substrate solution containing 5 mg./ml. of methyl 7-amino-3-methyl-3-cephem-4-carboxylate at pH 7.0.
The flask was then incubated with shaking at 30° for 16-20 hours to allow the enzyme to deesterify the substrate compound.
The supernatant from the centrifugation was evaluated by paper chromatography as described above, using 4/1 acetonitrile/water as the solvent.
A substrate solution containing about 2 mg./ml. of methyl 7-amino(phenyl)acetamido-3-methyl-3-cephem-4-carboxylate (methyl cephalexin) was prepared in water, at pH 7.2. […] The mixture was shaken at 30° for 4 hours, and was then analyzed by paper chromatography, overlaying the chromatograms on nutrient agar plates seeded with Sarcina lutea.

Molecule	Result (zone of inhibition, disk sensitivity) [1]	also measured
CC[C@H]1OC(=O)[C@H](C)[C@@H](O[C@H]2C[C@@](C)(OC)[C@@H](O)[C@H](C)O2)[C@H](C)[C@@H](O[C@@H]2O[C@H](C)C[C@H](N(C)C)[C@H]2O)[C@](C)(O)C[C@@H](C)C(=O)[C@H](C)[C@@H](O)[C@]1(C)O [Erythromycin]	-	
CC(=O)OCC1=C(C(=O)O)N2C(=O)[C@@H](NC(=O)Cc3cccs3)[C@H]2SC1 [Keflin]	-	
CCC[C@@H]1C[C@@H](C(=O)N[C@@H]([C@H]2O[C@H](SC)[C@H](O)[C@@H](O)[C@H]2O)[C@@H](C)O)N(C)C1 [Lincomycin]	-	
C[C@@H]1[C@H](O)[C@@H](C)/C=C/C=C/CC/C=C/C=C/C=C/C=C/C(O[C@H]2O[C@H](C)[C@@H](O)[C@H](N)[C@@H]2O)CC2O[C@](O)(CC(O)C(O)CCC(O)CC(O)CC(O)CC(=O)O[C@H]1C)CC(O)C2C(=O)O (stereo partly shown) [Nystatin]	-	
[H]/N=C(/N)N[C@H]1[C@H](O)[C@@H](O)[C@H](O[C@@H]2O[C@@H](C)[C@](O)(C=O)[C@H]2O[C@@H]2O[C@@H](CO)[C@H](O)[C@@H](O)[C@@H]2NC)[C@@H](N/C(N)=N\[H])[C@@H]1O [Streptomycin]	+	
CN(C)C1C(=O)C(C(N)=O)=C(O)C2(O)C(=O)C3=C(O)c4c(O)cccc4C(C)(O)C3CC12 (stereo not shown) [Tetracycline]	+	
CN[C@H](CC(C)C)C(=O)N[C@H]1C(=O)N[C@@H](CC(N)=O)C(=O)N[C@H]2C(=O)N[C@H]3C(=O)N[C@H](C(=O)N[C@H](C(=O)O)c4cc(O)cc(O)c4-c4cc3ccc4O)[C@H](O)c3ccc(c(Cl)c3)Oc3cc2cc(c3O[C@@H]2O[C@H](CO)[C@@H](O)[C@H](O)[C@H]2O[C@H]2C[C@](C)(N)[C@H](O)[C@H](C)O2)Oc2ccc(cc2Cl)[C@H]1O [Vancomycin]	+	
COC(=O)C1=C(C)CS[C@@H]2C(N)C(=O)N12 (stereo partly shown) [methyl 7-amino-3-methyl-3-cephem-4-carboxylate]		Km value for the enzyme [2]: about 2.3 mg./ml.; lowest reaction rate ([2]; 15°, pH 8.0, Sephacryl-purified enzyme, automatic titrator, corrected for non-enzymatic hydrolysis): 1e-05 mol/min (liter); highest reaction rate ([2]; 30°, pH 8.0, Sephacryl-purified enzyme, automatic titrator, corrected for non-enzymatic hydrolysis): 1.9×10^-5 moles of ester hydrolyzed/(minute) (liter of reaction mixture); activity of cell sonicate supernatant ([2]; supernatant containing 14.4 mg./ml. of protein, Example 15): 2.2×10^-5 moles of ester hydrolyzed/(minute) (liter); deesterification in culture, zone of inhibition after acylation [3]: zone of inhibition
Polymixin B	-	
